Laboratory results taken from PMC12867150, “A fungi-derived cyclic peptide enhances Th9-mediated antitumor immunity by targeting ZAP70 and SREBP1” (The Journal of Clinical Investigation, 2025).
Several values for one entry are separate records, joined by “and”; a condition that tells them apart may be missing. Identical values can stand only once.

Tests used:
endogenous CD8+ T cells = test: Flow cytometry of endogenous CD8+ T cells in spleen, LN, tumor (Figure 2F-G, S1F-I); assay type: in vivo, mouse; settings: for Frequencies of endogenous CD8⁺ T cells in LN: Supplemental Figure 1I left; for Number of endogenous CD8⁺ T cells in LN: Supplemental Figure 1I right; for CD8 gate number: representative flow plot
Description: C57BL/6 mice were subcutaneously injected with 5 × 10^5 B16-OVA melanoma cells. Five days after tumor implantation, mice received an intravenous infusion of 2 × 10^6 in vitro–differentiated Th9 cells (cultured for 5 days), which were derived from OT-II CD45.1 donor mice, accompanied by 4 × 10^5 OVA peptide–pulsed DCs via the tail vein. To enhance T cell engraftment and facilitate lymphodepletion, a single intraperitoneal injection of cyclophosphamide (200 mg/kg, Sigma, catalog C0768) was administered 1 day prior to T cell transfer. Mice were euthanized at designated time points for the collection and analysis of spleens, tumor-draining lymph nodes, and tumor tissues.
Details regarding staining panels (human and mouse), reagents (including clones and catalog numbers), acquisition settings, compensation/controls, and analysis procedures are provided in Supplemental Methods.
BioLegend, Cat. No. 422301 or Mouse TruStain FcX™, BioLegend, Cat. No. 101319) for 10 minutes at 4°C. For surface marker detection, cells were stained with fluorochrome-conjugated monoclonal antibodies in 96-well V-bottom plates and incubated on ice for 30 minutes. After staining, cells were washed twice and resuspended in FACS buffer for analysis.
Prior to intracellular cytokine staining, cells were restimulated for 4 hours with PMA (Absin, Cat. No. abs9107), ionomycin (Sigma-Aldrich, Cat. No. I0634), and brefeldin A (MedChemExpress, Cat. No. HY-16592). For intracellular cytokine staining, cells were first surface-stained as described above, then fixed and permeabilized using the BD Cytofix/Cytoperm™ kit (BD Biosciences, Cat. No. 554714) according to the manufacturer ’s protocol. Intracellular proteins were stained with directly conjugated antibodies targeting IL-9, IL-17a, IL-4, IFN-γ, TNF-α, FOXP3, p-ZAP70, Perforin, and […]
Antibodies used for mouse samples included those against IL-9 (PE, clone RM9A4, Biolegend, Cat. No. 514104), IFN-γ (PE, clone XMG1.2, Biolegend, Cat. No.
Cat. No. 103138), CD4 (APC/Cy7, clone E-AB-F1353UJ, Elabscience, Cat. No.
AF18028), CD8α (PerCP/Cy5.5, clone E-AB-F1104UJ, Elabscience, Cat. No. […]
clone E-AB-F1187UH, Elabscience, Cat. No. AF19854), TNF-α (BV421, clone MP6-XT22, Biolegend, Cat. No. 506328), FOXP3 (PE, clone FJK-16s, eBioscience, Cat. No.
Perforin (APC, clone S16009A, Biolegend, Cat. No. 154303) and Granzyme B (APC, […]
clone QA16A02, Biolegend, Cat. No. 372203). […]
Figure S1. EpA enhances immune responses. […]
I) Representative flow-cytometric plots of endogenous CD4⁺ and CD8⁺ T cells in spleens (F), LNs (G), and tumors (H); frequencies and absolute numbers of endogenous CD4⁺ (G) and CD8⁺ (I) T cells in LNs are quantified. (J and K) […]
Statistical analysis was performed using two-way ANOVA with Tukey’s post hoc test (A), one-way ANOVA with Tukey’s post hoc test (B) or two-tailed unpaired Student’s t-test (D and G–M). ns, not significant. *p < 0.05, **p < 0.01, ****p < 0.0001.
(also on this page, place not known: Mouse weight (g) CtrlEpA CtrlEpA CtrlEpA0 I CD45.1+ T cells (%) CtrlEpA CD4+ T cells (%) CtrlEpA CtrlEpA CtrlEpA FSC CD8 CD8 FSC FSC FSC BNumber of CD45.1+ T cells (×103 per mgĎ Number of CD4+ T cells (×104 per mgĎ DC (%)NK cells (%) NK cells (%) DC (%) Number of DC (×103 per mg) Number of NK cells (×105) Number of NK cells (×103 per mg) Number of DC (×105) FSC FSC FSC CD8 CtrlEpA CtrlEpA CtrlEpA CD8+ T cells (%) Number of CD8+ T cells (×104 per mgĎ nsns ns nsns ns 40 IL-6 (pg/ml)) […]

Th9 cells = test: IL-9+ Th9 cells with oleic acid (S8I-J); assay type: cell-based, mouse; settings: representative flow plot, Figure S8I; EpA 10 μM, OA 50 μM
Excerpt: LXR-α binding site ChREBP binding site USF1 binding site […] 2.1 1.8 2.1 […] 1.9 […] 20 20 0 […] + OA ✱✱✱✱ MIGR1 M Ctrl + OAEpA […] SREBP1 Ctrl SREBP1EpA ✱✱✱✱ ✱✱✱ 3 2 1 0 TNF-α MIGR1 SREBP1 […] SREBP1EpA Figure S8. EpA-associated modulation of lipid metabolism and its impact on Figure S8 Th9 cell function. (A-C) GSEA of RNA-seq data showing intracellular sterol transport (A), sterol transfer activity (B), and long-chain fatty acid transport (C) pathways in control and EpA-treated Th9 cells. […] (K and L) Flow-cytometric analysis of IL-9 expression in Th9 cells transduced with either control (MIGR1) or SREBP1- […]

[1] = spleens, individual mice, n = 4

In the case of anteiso-C15 Leu7 surfactin [EpA], the “Frequencies of endogenous CD8⁺ T cells in LN” value (“Frequencies … in LN” for short) (endogenous CD8+ T cells; LN, replicate 1) is reported as 31.6, the “Frequencies … in LN” value (endogenous CD8+ T cells; LN, replicate 2) is reported as 27.8 and the “Frequencies … in LN” value (endogenous CD8+ T cells; LN, replicate 3) is reported as 36.5. For the same substance, the “Frequencies … in LN” value (endogenous CD8+ T cells; LN, replicate 4) was 27.9, the “Number of endogenous CD8⁺ T cells in LN” value (endogenous CD8+ T cells; LN, replicate 1) was 49988.9 and the “Number of endogenous CD8⁺ T cells in LN” value (endogenous CD8+ T cells; LN, replicate 2) was 41201.1. For the same substance, the “Number of endogenous CD8⁺ T cells in LN” value (endogenous CD8+ T cells; LN, replicate 3) was 21505.6, the “Number of endogenous CD8⁺ T cells in LN” value (endogenous CD8+ T cells; LN, replicate 4) was 20877.6 and the CD8 gate number (endogenous CD8+ T cells; LN, Figure S1G) was 36.5. The CD8 gate number (endogenous CD8+ T cells; Spleen, Figure S1F) was 34.5, the CD8 gate number (endogenous CD8+ T cells; Tumor, Figure S1H) was 54.0 and the “endogenous CD8+ T cell frequency” value (endogenous CD8+ T cells; lymph nodes, result in words) was “modest frequency increase”. The “endogenous CD8+ T cell total numbers” value (endogenous CD8+ T cells; lymph nodes, result in words) was “unchanged total numbers”, the “endogenous CD8+ T cell frequency and number” value (endogenous CD8+ T cells; spleens and tumors, result in words) was “markedly increased in both frequency and absolute number” and the “endogenous CD8 (%)” value (endogenous CD8+ T cells; [1]) was 30.4% and 27.2% and 30.6% and 34.5%. The “number of CD8 T cells” value (endogenous CD8+ T cells; [1]) was 3878238 and 3825743 and 3962312 and 3201124, the “endogenous CD8 T cells (%)” value (endogenous CD8+ T cells; tumors, individual mice, n = 4) was 54% and 34.7% and 36.8% and 55.2% and the “number of endogenous CD8 T cells” value (endogenous CD8+ T cells; tumors, individual mice, n = 4) was 176 and 424 and 563 and 172. The IL-9 gate number (Th9 cells) was 77.2.
